Source: paper PMC8742467, “Therapeutical interference with the epigenetic landscape of germ cell tumors: a comparative drug study and new mechanistical insights” (Clinical Epigenetics, 2022)

Key:
[1] = tested on: CC-R (cisplatin-resistant choriocarcinoma subclones); test: XTT cell viability assay, mean per entity CC-R; assay type: cell-based; details: Homo sapiens, after 48 h
Protocol: (§1) The […] (XTT) assays were performed as described previously. In summary, for GCT and fibroblast cell lines 5 × 10^3 cells (3 × 10^3 for UC, PCa and RCC cell lines) per 96-well were seeded and different drug concentrations (see Additional file 2: Fig. S2, Additional file 3: Fig. S3) or corresponding solvents were added to the cells the following day. For drug details see Additional file 12: Table S2 C. Each condition was analyzed in four technical replicates and EC50 values were calculated by GraphPad Prism v8.

[2] = tested on: DNA methylation (5mC, 5hmC) in 2102EP cells; test: DNA slot blot (5mC, 5hmC); assay type: cell-based, Human; details: 24 h, solvent control set to 100%
Protocol: Purity of DNA was verified using NanoDrop 260/280 ratio and agarose gel electrophoresis. DNA was diluted in H2O to 200 ng, 100 ng and 50 ng in 200 µl per slot. Slot-Blotter device (Carl Roth GmbH + Co KG, Karlsruhe, Germany) was assembled as according to the manual. DNA was blotted onto a positively charged nylon membrane (Carl Roth GmbH + Co KG, Karlsruhe, Germany) using vacuum application. Three identical membranes were prepared. The membranes were air-dried for 15—20 min and UV-crosslinked (20 s (s), 1200 mJ/cm^2). One membrane was stained with methylene blue (0.02% methylene blue (Merck Millipore, Darmstadt, Germany) in 0.3 M sodium acetate (pH 5.2)) to validate DNA loading across the samples. The remaining two membranes were blocked in 5% milk powder in PBST for 1 h at RT. Membranes were incubated with 5mC or 5hmC antibody overnight at 4 °C. After washing, membranes were incubated with secondary antibody for 2 h at RT. Signals were detected using the ChemiDoc Imaging Systems (Bio-Rad Laboratories, Feldkirchen, Germany).

[3] = tested on: Sertoli cells FS1 (SC); test: XTT cell viability assay, Sertoli cells; assay type: cell-based; details: Homo sapiens; after 48 h
Protocol: as §1

[4] = tested on: TCam-2 (SE); test: XTT cell viability assay, TCam-2; assay type: cell-based; details: Homo sapiens, 48 h, read-out: EC50 colour/symbol code, SE TCam-2
Protocol: as §1

[5] = tested on: histone modifications in 2102EP cells; test: Mass spectrometry analysis of histone modifications (Mod Spec); assay type: cell-based, Human
Method in brief: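 2102EP cells were treated for 16 h with EC50 concentrations of Quisinostat, JIB-04, Chaetocin, MZ-1, LP99, PRT4165 or GSK343, with DMSO as solvent control. After trypsin harvest, histones were extracted and analysed by mass spectrometry. Raw data were converted to z-scores.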

[6] = tested on: EC (embryonal carcinoma) cell lines; test: XTT cell viability assay, mean per entity EC; assay type: cell-based; details: Homo sapiens, after 48 h
Protocol: as §1

[7] = tested on: transcriptome of 2102EP cells; test: RNA sequencing; assay type: cell-based, Human; details: 16 h
Method in brief: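 Transcriptome of 2102EP cells sequenced; differential expression between two groups tested with p values FDR-corrected for multiple testing. Solvent-control values averaged across three datasets (GSE189472, GSE190792, GSE190022).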

[8] = tested on: SE-R (cisplatin-resistant seminoma subclone); test: XTT cell viability assay, mean per entity SE-R; assay type: cell-based; details: Homo sapiens, after 48 h
Protocol: as §1

[9] = 2102EP cells, Mod Spec raw data
[10] = 2102EP, EC50, 16 h, vs solvent control
[11] = sorted data log2>±1.5, FDR p<0.05

For `CN1C(=O)[C@@]23C[C@]4([C@]56C[C@@]78SS[C@@](CO)(C(=O)N7[C@H]5Nc5ccccc56)N(C)C8=O)c5ccccc5N[C@@H]4N2C(=O)[C@]1(CO)SS3` [Chaetocin], the EC50 [1] was 233 nM, the “5mC levels compared to solvent control” value [2] was 85% and the EC50 [3] was 69.3 nM. For the same compound, the EC50 [4] was less than 1000 nM, the “H1.4: K25AC, % of peptide pool” value [5, 9] was 0.02988% and the “H1.4: K25ME1, % of peptide pool” value [5, 9] was 2.019%. For the same compound, the “H1.4: K25ME2, % of peptide pool” value [5, 9] was 0.1186%, the “H1.4: K25ME3, % of peptide pool” value [5, 9] was 0.02061% and the “H1.4: K25UN, % of peptide pool” value [5, 9] was 97.812%. The “H2A1: K13AC, % of peptide pool” value [5, 9] was 0.0146%, the “H2A1: K13UN, % of peptide pool” value [5, 9] was 99.9854% and the “H2A1: K15AC, % of peptide pool” value [5, 9] was 0.01159%. The “H2A1: K15UB, % of peptide pool” value [5, 9] was 0%, the “H2A1: K15UN, % of peptide pool” value [5, 9] was 99.9884% and the “H2A3: K13AC, % of peptide pool” value [5, 9] was 0.04893%. The “H2A3: K13UN, % of peptide pool” value [5, 9] was 99.9511%, the “H2A3: K15AC, % of peptide pool” value [5, 9] was 0.07659% and the “H2A3: K15UB, % of peptide pool” value [5, 9] was 0%. The “H2A3: K15UN, % of peptide pool” value [5, 9] was 99.9234%, the “H2A: K5AC, % of peptide pool” value [5, 9] was 14.3188% and the “H2A: K5UN, % of peptide pool” value [5, 9] was 85.6812%. For the same compound, the “H2A: K9AC, % of peptide pool” value [5, 9] was 1.675%, the “H2A: K9UN, % of peptide pool” value [5, 9] was 98.3248% and the “H2A: K36AC, % of peptide pool” value [5, 9] was 0.05938%. For the same compound, the “H2A: K36UN, % of peptide pool” value [5, 9] was 99.9406%, the “H3: K9AC, % of peptide pool” value [5, 9] was 0.8662% and the “H3: K9ME1, % of peptide pool” value [5, 9] was 34.1794%. The “H3: K9ME2, % of peptide pool” value [5, 9] was 24.6408%, the “H3: K9ME3, % of peptide pool” value [5, 9] was 2.426% and the “H3: K9UN, % of peptide pool” value [5, 9] was 37.8878%. For the same compound, the “H3: K14AC, % of peptide pool” value [5, 9] was 29.886%, the “H3: K14UN, % of peptide pool” value [5, 9] was 70.114% and the “H3: K18AC, % of peptide pool” value [5, 9] was 12.8748%. The “H3: K18ME1, % of peptide pool” value [5, 9] was 0.1543%, the “H3: K18UN, % of peptide pool” value [5, 9] was 86.9709% and the “H3: K23AC, % of peptide pool” value [5, 9] was 19.2205%. For the same compound, the “H3: K23ME1, % of peptide pool” value [5, 9] was 0.03585%, the “H3: K23UN, % of peptide pool” value [5, 9] was 80.7437% and the “H3: K56AC, % of peptide pool” value [5, 9] was 0.2394%. For the same compound, the “H3: K56ME1, % of peptide pool” value [5, 9] was 0.9888%, the “H3: K56UN, % of peptide pool” value [5, 9] was 98.7718% and the “H3: K64AC, % of peptide pool” value [5, 9] was 0.03741%. For the same compound, the “H3: K64UN, % of peptide pool” value [5, 9] was 99.9626%, the “H3: K79AC, % of peptide pool” value [5, 9] was 1.813% and the “H3: K79ME1, % of peptide pool” value [5, 9] was 15.4225%. For the same compound, the “H3: K79ME2, % of peptide pool” value [5, 9] was 5.182%, the “H3: K79ME3, % of peptide pool” value [5, 9] was 17.8629% and the “H3: K79UN, % of peptide pool” value [5, 9] was 59.719%. The “H3: K122AC, % of peptide pool” value [5, 9] was 0.1813%, the “H3: K122UN, % of peptide pool” value [5, 9] was 99.8187% and the “H3: Q19ME1, % of peptide pool” value [5, 9] was 0.03077%. The “H3: Q19UN, % of peptide pool” value [5, 9] was 99.9692%, the “H3: Q55ME1, % of peptide pool” value [5, 9] was 0.2687% and the “H3: Q55UN, % of peptide pool” value [5, 9] was 99.7313%. The “H3: R42ME2, % of peptide pool” value [5, 9] was 2.246%, the “H3: R42UN, % of peptide pool” value [5, 9] was 97.7541% and the “H3: R49ME2, % of peptide pool” value [5, 9] was 6.84%. The “H3: R49UN, % of peptide pool” value [5, 9] was 93.1597%, the “H3R2UN: K4AC, % of peptide pool” value [5, 9] was 0.1823% and the “H3R2UN: K4ME1, % of peptide pool” value [5, 9] was 17.5028%. For the same compound, the “H3R2UN: K4ME2, % of peptide pool” value [5, 9] was 0.3386%, the “H3R2UN: K4ME3, % of peptide pool” value [5, 9] was 0.1482% and the “H3R2UN: K4UN, % of peptide pool” value [5, 9] was 81.8281%. For the same compound, the “H3R2UN: Q5ME1, % of peptide pool” value [5, 9] was 0.09687%, the “H3R2UN: Q5UN, % of peptide pool” value [5, 9] was 99.9031% and the “H3.1: K27AC, % of peptide pool” value [5, 9] was 2.462%. For the same compound, the “H3.1: K27ME1, % of peptide pool” value [5, 9] was 46.5828%, the “H3.1: K27ME2, % of peptide pool” value [5, 9] was 19.949% and the “H3.1: K27ME3, % of peptide pool” value [5, 9] was 2.906%. The “H3.1: K27UN, % of peptide pool” value [5, 9] was 28.0999%, the “H3.1: K36AC, % of peptide pool” value [5, 9] was 0.3566% and the “H3.1: K36ME1, % of peptide pool” value [5, 9] was 14.5986%. For the same compound, the “H3.1: K36ME2, % of peptide pool” value [5, 9] was 44.4208%, the “H3.1: K36ME3, % of peptide pool” value [5, 9] was 21.3142% and the “H3.1: K36UN, % of peptide pool” value [5, 9] was 19.3097%. The “H3.3: K27AC, % of peptide pool” value [5, 9] was 5.581%, the “H3.3: K27M, % of peptide pool” value [5, 9] was 0% and the “H3.3: K27ME1, % of peptide pool” value [5, 9] was 45.9713%. For the same compound, the “H3.3: K27ME2, % of peptide pool” value [5, 9] was 14.9979%, the “H3.3: K27ME3, % of peptide pool” value [5, 9] was 5.393% and the “H3.3: K27UN, % of peptide pool” value [5, 9] was 28.0564%. The “H3.3: K36AC, % of peptide pool” value [5, 9] was 3.238%, the “H3.3: K36ME1, % of peptide pool” value [5, 9] was 13.4078% and the “H3.3: K36ME2, % of peptide pool” value [5, 9] was 46.3675%. The “H3.3: K36ME3, % of peptide pool” value [5, 9] was 22.3154%, the “H3.3: K36UN, % of peptide pool” value [5, 9] was 14.6709% and the “H4: K5AC, % of peptide pool” value [5, 9] was 7.567%. For the same compound, the “H4: K5UN, % of peptide pool” value [5, 9] was 92.4335%, the “H4: K8AC, % of peptide pool” value [5, 9] was 11.8437% and the “H4: K8UN, % of peptide pool” value [5, 9] was 88.1563%. For the same compound, the “H4: K12AC, % of peptide pool” value ([5]; 2102EP cells, Mod Spec raw data, histone H4 K12 acetylated) was 6.89 % of peptide pool, the “H4: K12UN, % of peptide pool” value ([5]; 2102EP cells, Mod Spec raw data, histone H4 K12 unmodified) was 93.1103 % of peptide pool and the “H4: K16AC, % of peptide pool” value ([5]; 2102EP cells, Mod Spec raw data, histone H4 K16 acetylated) was 48.815 % of peptide pool. For the same compound, the “H4: K16UN, % of peptide pool” value ([5]; 2102EP cells, Mod Spec raw data, histone H4 K16 unmodified) was 51.185 % of peptide pool, the “H4: K20AC, % of peptide pool” value ([5]; 2102EP cells, Mod Spec raw data, histone H4 K20 acetylated) was 23.7533 % of peptide pool and the “H4: K20ME2, % of peptide pool” value ([5]; 2102EP cells, Mod Spec raw data, histone H4 K20 dimethylated) was 42.9015 % of peptide pool. For the same compound, the “H4: K20ME1, % of peptide pool” value ([5]; 2102EP cells, Mod Spec raw data, histone H4 K20 monomethylated) was 5.498 % of peptide pool, the “H4: K20ME3, % of peptide pool” value ([5]; 2102EP cells, Mod Spec raw data, histone H4 K20 trimethylated) was 1.56 % of peptide pool and the “H4: K20UN, % of peptide pool” value ([5]; 2102EP cells, Mod Spec raw data, histone H4 K20 unmodified) was 26.2873 % of peptide pool. For the same compound, the “change of histone modifications of the expected mode of action (Mod Spec)” value [5, 10] was “reduction of H3K9me2/me3”, the “off-target changes of histone modifications (Mod Spec)” value [5, 10] was “increase of H4K20ac” and the EC50 [6] was 128 nM. The “ATP1A2 Log2 fold change vs. DMSO” value [7, 11] was -3.26, the “CASQ1 Log2 fold change vs. DMSO” value [7, 11] was -2.99 and the “DLX5 Log2 fold change vs. DMSO” value [7, 11] was 5.91. For the same compound, the “DLX6 Log2 fold change vs. DMSO” value [7, 11] was 5.90, the “POU2F3 Log2 fold change vs. DMSO” value [7, 11] was -2.99 and the “SERPINB3 Log2 fold change vs. DMSO” value [7, 11] was 6.77. The “A1BG Log2 fold change vs. DMSO” value ([7]; unsorted data) was 0.04, the “A1CF Log2 fold change vs. DMSO” value ([7]; unsorted data) was -2.02 and the “A2M Log2 fold change vs. DMSO” value ([7]; unsorted data) was 1.33. It also gave an EC50 [8] of 218 nM.
